How the values were obtained:
[1] = biological target: T1, GST tagged LXRbeta LBD (ligand binding domain) (Homo sapiens, UniProt P55055); assay: LanthaScreen TR-FRET Liver X Receptor Coactivator Assay, LXR beta-LBD (co-activator recruitment; IP and % Emax relative to T0901317); format: biochemical; conditions: for EC50: Inflection Point of co-activator recruitment, LXR beta-LBD, TR-FRET; for Emax: efficacy at max dose in relation to reference T0901317, LXR beta-LBD, read-out: LXR beta actiivty at max dose (%)
T1 construct: purchased Invitrogen pv4658.pps
T1 sequence (P55055 222-460 limits assumed): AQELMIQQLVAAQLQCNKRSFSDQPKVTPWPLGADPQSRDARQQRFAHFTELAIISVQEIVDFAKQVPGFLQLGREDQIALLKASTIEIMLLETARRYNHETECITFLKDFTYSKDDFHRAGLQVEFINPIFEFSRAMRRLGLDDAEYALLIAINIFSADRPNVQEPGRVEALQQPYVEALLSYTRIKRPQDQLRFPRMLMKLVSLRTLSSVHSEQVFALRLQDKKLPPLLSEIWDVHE
Protocol: (§1) Potency (Inflection Point, IP) and efficacy (Emax) are evaluated via compound-induced co-activator recruitment to glutathione-S-transferase (GST) tagged LXRbeta and LXRalpha LBD (ligand binding domain) proteins in relation to reference dual agonist compound T0901317 (N-(2,2,2-Trifluoroethyl)-N-[4-[2,2,2-trifluoro-1-hydroxy-1-(trifluoromethyl)ethyl]phenyl]benzenesulfonamide) using the LanthaScreen™ TR-FRET Liver X Receptor Coactivator Assays according to manufacturer's instructions (Invitrogen catalog number pv4658.pps and pv4655). While running the LanthaScreen™ TR-FRET Liver X Receptor Coactivator Assay, LXR alpha-LBD or LXR beta-LBD was added to ligand test compounds followed by addition of a mixture of a fluorescein-labelled coactivator peptide and terbium-conjugated anti-GST antibody. After an incubation period at room temperature, TR-FRET (time-resolved fluorescence resonance energy transfer) was measured using a filter-based instrument capable of TR-FRET, e.g. PerkinElmer Envision.

[2] = biological target: T2, GST tagged LXRalpha LBD (ligand binding domain) (Homo sapiens, UniProt Q13133); assay: LanthaScreen TR-FRET Liver X Receptor Coactivator Assay, LXR alpha-LBD (co-activator recruitment; IP and % Emax relative to T0901317); format: biochemical; conditions: for LXR alpha IP (nM) / EC50: Inflection Point of co-activator recruitment, LXR alpha-LBD, TR-FRET; for Emax: efficacy at max dose in relation to reference T0901317, LXR alpha-LBD, read-out: LXR alpha actiivty at max dose (%)
T2 construct: purchased Invitrogen pv4655
T2 sequence (Q13133 209-447 limits assumed): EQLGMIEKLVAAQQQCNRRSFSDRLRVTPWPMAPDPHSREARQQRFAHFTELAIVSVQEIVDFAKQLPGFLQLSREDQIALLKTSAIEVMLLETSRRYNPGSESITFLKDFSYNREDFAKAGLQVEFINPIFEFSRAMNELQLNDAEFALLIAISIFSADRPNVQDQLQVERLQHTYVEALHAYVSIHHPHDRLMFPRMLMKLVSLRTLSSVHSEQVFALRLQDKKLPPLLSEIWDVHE
Protocol: as §1

EC50 [1] [nM] | Emax [1] [%] | LXR alpha IP (nM) [2] | Emax [2] [%] | EC50 [2] [nM] | SMILES
1120 | 32 | No IP | 2 |  | COc1cccc([C@@](O)(C(=O)N(C)CCCC2CCN(c3ncc(C(=O)N(C)C)cc3Cl)CC2)C(F)(F)F)c1 [Example 2-22, (R)-5-chloro-N,N-dimethyl-6-(4-(3-(3,3,3-trifluoro-2-hydroxy-2-(3-methoxyphenyl)-N-methylpropanamido)propyl)piperidin-1-yl)nicotinamide]
473 | 46 |  | 22 | 3100 | CN(C)C(=O)c1ccc(N2CCC3(CC2)C[C@H]3CCN(C)C(=O)[C@](O)(c2ccccc2)C(F)(F)F)cc1Cl [Example 7-25, 2-chloro-N,N-dimethyl-4-((S)-1-(2-((R)-3,3,3-trifluoro-2-hydroxy-N-methyl-2-phenylpropanamido)ethyl)-6-azaspiro[2.5]octan-6-yl)benzamide]
1330 | 39 |  | 29 | 3780 | CNC(=O)c1ccc(N2CCC([C@H]3C[C@H]3CNC(=O)[C@](O)(c3ccccc3)C(F)(F)F)CC2)nc1Cl [Example 15-12, 2-chloro-N-methyl-6-(4-((1R,2R)-2-(((R)-3,3,3-trifluoro-2-hydroxy-2-phenylpropanamido)methyl)cyclopropyl)piperidin-1-yl)nicotinamide]
330 | 60 | No IP | 9 |  | CN(C)C(=O)c1ccc(N2CCC(CCCN(C)C(=O)[C@@](C)(O)c3ccccc3)CC2)nc1Cl [Example 1-21, (S)-2-chloro-6-(4-(3-(2-hydroxy-N-methyl-2-phenylpropanamido)propyl)piperidin-1-yl)-N,N-dimethylnicotinamide]
118 | 80 |  | 24 | 2860 | COc1ccccc1[C@]1(C(=O)N(C)CCCC2CCN(c3ccc(C(=O)N(C)C)c(Cl)n3)CC2)CCCO1 [Example 1-59, (S)-2-chloro-6-(4-(3-(2-(2-methoxyphenyl)-N-methyltetrahydrofuran-2-carboxamido)propyl)piperidin-1-yl)-N,N-dimethylnicotinamide]
20 | 64 |  | 26 | 826 | CN(C)C(=O)c1ccc(N2CCC3(CC2)CC3CCN(C)C(=O)[C@](O)(c2cccc(OC(F)(F)F)c2)C(F)(F)F)cc1Cl (stereo in doubt) [Example 7-4, 2-chloro-N,N-dimethyl-4-((R)-1-(2-((R)-3,3,3-trifluoro-2-hydroxy-N-methyl-2-(3-(trifluoromethoxy)phenyl)propanamido)ethyl)-6-azaspiro[2.5]octan-6-yl) benzamide]
81 | 60 |  | 42 | 1150 | CN(CC[C@H]1CC12CCN(c1ccc(C(=O)NC3CC3)c(Cl)c1)CC2)C(=O)[C@](O)(c1ccccc1)C(F)(F)F [Example 7-11, 2-chloro-N-cyclopropyl-4-((R)-1-(2-((R)-3,3,3-trifluoro-2-hydroxy-N-methyl-2-phenylpropanamido)ethyl)-6-azaspiro[2.5]octan-6-yl)benzamide]
110 | 54 | No IP | 11 |  | CN(C)C(=O)c1ccc(N2CCC(CCCN(C)C(=O)C3(c4ccccc4)CCC3)CC2)nc1Cl [Example 1-43, 2-chloro-N,N-dimethyl-6-(4-(3-(N-methyl-1-phenyl-cyclobutanecarboxamido)propyl)piperidin-1-yl)nicotinamide]
74 | 59 | No IP | 0 |  | CN(C)C(=O)c1ccc(N2CCC([C@H]3C[C@H]3CN(C)C(=O)[C@](O)(c3cccc(OC4CC4)c3)C(F)(F)F)CC2)nc1Cl [Example 15-8, 2-chloro-6-(4-((1R,2R)-2-(((R)-2-(3-cyclopropoxyphenyl)-3,3,3-trifluoro-2-hydroxy-N-methylpropanamido)methyl)cyclopropyl)piperidin-1-yl)-N,N-dimethylnicotinamide]

From patent US10961215B2, “N-aryl and N-heteroaryl piperidine derivatives as liver X receptor beta agonists, compositions, and their use” (Merck Sharp & Dohme Corp., priority 2016, dated 2021)
